Measurements: ChEMBL document CHEMBL3217645, “Online parallel fragment screening and rapid hit exploration for nicotinic acetylcholine receptors” (Medchemcomm, 2011)

Key:
[1] = Selectivity ratio of Ki for Lymnaea stagnalis AChBP over Ki for Aplysia californica AChBP
[2] = biological target: Acetylcholine-binding protein (Lymnaea stagnalis, UniProt P58154); experiment: Displacement of [3H]epibatadine from Lymnaea stagnalis recombinant C-terminal His-tagged AChBP expressed in baculovirus infected SF9 cells after 1.5 hrs by scintillation counting analysis
Sequence of Acetylcholine-binding protein (P58154 whole entry): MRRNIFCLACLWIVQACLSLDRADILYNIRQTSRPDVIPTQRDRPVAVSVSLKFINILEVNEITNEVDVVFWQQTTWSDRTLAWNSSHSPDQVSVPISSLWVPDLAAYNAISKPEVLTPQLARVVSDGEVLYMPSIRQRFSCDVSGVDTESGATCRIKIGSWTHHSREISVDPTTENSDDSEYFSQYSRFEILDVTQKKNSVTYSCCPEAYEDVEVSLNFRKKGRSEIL

[3] = biological target: Neuronal acetylcholine receptor subunit alpha-7 (Homo sapiens, UniProt P36544); experiment: Displacement of [3H]epibatadine from human alpha7 nAChR expressed in human SH-SY5Y cells after 1.5 hrs by scintillation counting analysis; type: cell-based
Sequence of Neuronal acetylcholine receptor subunit alpha-7 (P36544 whole entry): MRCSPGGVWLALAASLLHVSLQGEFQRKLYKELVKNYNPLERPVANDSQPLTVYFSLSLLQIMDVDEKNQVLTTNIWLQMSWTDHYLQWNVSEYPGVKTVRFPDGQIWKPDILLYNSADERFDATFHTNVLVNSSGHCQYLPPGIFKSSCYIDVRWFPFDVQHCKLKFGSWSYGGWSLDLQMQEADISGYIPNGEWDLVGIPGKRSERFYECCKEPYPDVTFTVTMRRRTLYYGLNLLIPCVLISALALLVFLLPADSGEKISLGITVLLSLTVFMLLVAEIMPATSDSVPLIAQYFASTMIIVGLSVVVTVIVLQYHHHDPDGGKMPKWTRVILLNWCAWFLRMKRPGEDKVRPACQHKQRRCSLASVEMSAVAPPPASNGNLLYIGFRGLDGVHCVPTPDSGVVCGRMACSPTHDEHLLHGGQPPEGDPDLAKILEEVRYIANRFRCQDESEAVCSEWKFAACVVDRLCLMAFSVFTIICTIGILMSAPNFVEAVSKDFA

[4] = Selectivity ratio of Ki for Lymnaea stagnalis recombinant C-terminal His-tagged AChBP to Ki for human alpha7 nAChR
[5] = Displacement of [3H]epibatadine from Aplysia californica recombinant C-terminal His-tagged AChBP expressed in baculovirus infected SF9 cells after 1.5 hrs by scintillation counting analysis
[6] = biological target: Neuronal acetylcholine receptor; alpha4/beta2 (Homo sapiens, UniProt P17787+P43681); experiment: Displacement of [3H]epibatadine from human alpha4beta2 nAChR expressed in HEK293T cells after 1.5 hrs by scintillation counting analysis; type: cell-based, HEK-293T
Sequence of Neuronal acetylcholine receptor; alpha4/beta2 (P17787 whole entry): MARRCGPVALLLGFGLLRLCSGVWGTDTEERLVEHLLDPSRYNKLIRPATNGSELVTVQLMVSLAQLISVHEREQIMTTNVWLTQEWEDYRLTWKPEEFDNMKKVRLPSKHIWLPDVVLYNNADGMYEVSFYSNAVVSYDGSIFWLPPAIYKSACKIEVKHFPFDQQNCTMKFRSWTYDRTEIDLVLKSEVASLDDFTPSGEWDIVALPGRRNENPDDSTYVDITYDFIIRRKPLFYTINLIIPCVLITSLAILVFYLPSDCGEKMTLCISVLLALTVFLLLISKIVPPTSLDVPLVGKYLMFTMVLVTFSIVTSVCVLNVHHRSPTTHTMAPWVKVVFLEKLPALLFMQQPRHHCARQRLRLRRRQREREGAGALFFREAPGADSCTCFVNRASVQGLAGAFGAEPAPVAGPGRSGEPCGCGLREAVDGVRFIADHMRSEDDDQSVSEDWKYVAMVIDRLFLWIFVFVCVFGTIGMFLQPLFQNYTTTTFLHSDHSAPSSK
Sequence of Neuronal acetylcholine receptor; alpha4/beta2 (P43681 whole entry): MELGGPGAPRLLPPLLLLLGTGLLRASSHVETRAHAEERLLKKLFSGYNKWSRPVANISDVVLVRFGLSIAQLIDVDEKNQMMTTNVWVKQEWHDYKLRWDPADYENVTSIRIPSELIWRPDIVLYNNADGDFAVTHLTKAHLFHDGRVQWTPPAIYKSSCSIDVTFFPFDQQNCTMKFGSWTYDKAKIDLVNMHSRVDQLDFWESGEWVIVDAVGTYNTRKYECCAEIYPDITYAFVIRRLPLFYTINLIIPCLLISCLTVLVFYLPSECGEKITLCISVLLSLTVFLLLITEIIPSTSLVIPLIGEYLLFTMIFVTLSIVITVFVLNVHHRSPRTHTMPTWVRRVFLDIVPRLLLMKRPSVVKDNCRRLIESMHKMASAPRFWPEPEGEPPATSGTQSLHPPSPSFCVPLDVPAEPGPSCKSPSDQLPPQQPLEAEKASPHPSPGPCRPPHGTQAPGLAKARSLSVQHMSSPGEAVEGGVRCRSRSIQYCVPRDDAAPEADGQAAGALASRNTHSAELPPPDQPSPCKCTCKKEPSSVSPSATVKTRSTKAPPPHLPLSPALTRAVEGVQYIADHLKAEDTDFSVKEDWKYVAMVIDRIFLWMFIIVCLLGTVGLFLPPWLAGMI

SMILES	Ratio Ki [1]	Ki [2] [µM]	Ki [3] [µM]	Ratio Ki [4]	pKi [5]	Ki [6] [µM]
C[C@H](NC(=O)[C@H](CS)NC(=O)[C@H](CCCNC(=N)N)NC(=O)[C@@H]1CCCN1C(=O)[C@H](CC(=O)O)NC(=O)[C@H](CO)NC(=O)[C@H](CS)NC(=O)[C@H](CS)NC(=O)CN)C(=O)N[C@@H](Cc1c[nH]c2ccccc12)C(=O)N[C@@H](CCCNC(=N)N)C(=O)N[C@@H](CS)C(N)=O	> 6000	–	–	–	–	–
Fc1ccc(F)c(NN=C2CCN(CCc3ccccc3)CC2)c1	–	0.0891	> 100	–	–	–
CN1[C@@H]2CC[C@H]1C/C(=N\Nc1ccccc1Cl)C2	–	0.204	2.19	5	–	–
CC(C)N1CCC(=NO)CC1	> 9.5	10.5	10.2	–	< 4	> 100
